Values quoted from earlier work as cited in patent publication US9895325B2, “Tablet composition comprising cinacalcet hydrochloride” (SYNTHON B.V., priority 2012, dated 2018).

Conditions: pH 1

- solubility: approx. 0.1 mg/ml
Structure (SMILES): C[C@@H](NCCCc1cccc(C(F)(F)F)c1)c1cccc2ccccc12.Cl [Cinacalcet hydrochloride]
